Patent publication US8927570B2, “1-naphthyl-or 1-dihydroacenaphthenyl-pyrido[B]indoles and uses thereof in treating cancers” (priority 2009, dated 2015)

system: Panc-1 pancreatic cancer cell line; assay: In vitro antiproliferative activity, Panc-1 pancreatic cancer cell line; type: cell-based, human; settings: Homo sapiens, Table 1
Experimental: (§1) Substituted β-carbolines and analog compounds 39 to 57 were tested for antiproliferative activity against HPAC, Mia-PaCa2 and Panc-1 pancreatic cancer cell lines and MCF-7 and MDA-MB-468 breast cancer cell lines. Table 2 lists the IC50 values for the substituted β-carbolines and analogs thereof.

SMILES	IC50 [µM]
COc1ccc2[nH]c3c(-c4ccc(-c5ccccn5)cc4)nccc3c2c1 [Compound 38, 6-Methoxy-1-(4-pyridin-2-yl-phenyl)-9H-β-carboline]	47.4
COc1ccc2[nH]c3c(-c4cccc5cnccc45)nccc3c2c1 [Compound 23, 1-Isoquinolin-5-yl-6-methoxy-9H-β-carboline]	21.2
COc1ccc2[nH]c3c(-c4c(C)ccc5ccccc45)nccc3c2c1 [Compound 33, 6-Methoxy-1-(2-methyl-naphthalen-1-yl)-9H-β-carboline]	19.8
COc1ccc2[nH]c3c(-c4cccc5nccnc45)nccc3c2c1 [Compound 13, 6-Methoxy-1-quinoxalin-5-yl-9H-β-carboline]	> 50
COc1ccc2c(c1)[nH]c1c(-c3cnc4ccccc4c3)nccc12 [Compound 18, 7-Methoxy-1-quinolin-3-yl-9H-β-carboline]	37.2
COc1ccc2c(c1)[nH]c1c(-c3cccc4ncccc34)nccc12 [Compound 22, 7-Methoxy-1-quinolin-5-yl-9H-β-carboline]	> 50
COc1ccc2[nH]c3c(-c4cncc5ccccc45)nccc3c2c1 [Compound 15, 1-Isoquinolin-4-yl-6-methoxy-9H-β-carboline]	10.5
COc1ccc2c(c1)[nH]c1c(-c3ccccc3)nccc12 [Compound 32, 7-Methoxy-1-phenyl-9H-β-carboline]	> 50
COc1ccc2[nH]c3c(-c4c5ccccc5cc5ccccc45)nccc3c2c1 [Compound 27, 1-Anthracen-9-yl-6-methoxy-9H-β-carboline]	10.5
COc1ccc2[nH]c3c(-c4cc5ccccc5c5ccccc45)nccc3c2c1 [Compound 29, 6-Methoxy-1-phenanthren-9-yl-9H-β-carboline]	18
COc1ccc2c(c1)[nH]c1c(-c3ccoc3)nccc12 [Compound 8, 1-Furan-3-yl-7-methoxy-9H-β-carboline]	> 50
COc1ccc2c(c1)[nH]c1c(-c3cccc4nccnc34)nccc12 [Compound 14, 7-Methoxy-1-quinoxalin-5-yl-9H-β-carboline]	> 50
COc1ccc2c(c1)[nH]c1c(-c3cccnc3)nccc12 [Compound 5, 1-Pyridin-3-yl-7-methoxy-9H-β-carboline]	> 50
COc1ccc2[nH]c3c(-c4ccccc4)nccc3c2c1 [Compound 31, 6-Methoxy-1-phenyl-9H-β-carboline]	> 50
Cc1cccc2c1[nH]c1c(-c3cccc4ccccc34)nccc12 [Compound 37, 8-Methyl-1-naphthalen-1-yl-9H-β-carboline]	> 50
COc1ccc2c(c1)[nH]c1c(-c3cccc4cnccc34)nccc12 [Compound 24, 1-Isoquinolin-5-yl-7-methoxy-9H-β-carboline]	> 50
COc1ccc2[nH]c3c(-c4ccc5ccccc5c4)nccc3c2c1 [Compound 25, 6-Methoxy-1-naphthalen-2-yl-9H-β-carboline]	8.4
COc1ccc2c(-c3nccc4c3[nH]c3ccc(OC)cc34)cccc2c1 [Compound 35, 6-Methoxy-1-(6-methoxy-naphthalen-1-yl)-9H-β-carboline]	> 50

system: Mia-PaCa2 pancreatic cancer cell line; assay: In vitro antiproliferative activity, Mia-PaCa2 pancreatic cancer cell line; type: cell-based; settings: Homo sapiens, MIA PaCa-2, Table 1
Experimental: (§2) Substituted β-carboline compounds 4 to 38 were tested for antiproliferative activity against HCT116 colon cancer cells and HPAC, Mia-PaCa2 and Panc-1 pancreatic cancer cell lines. Table 1 lists the IC50 values for the substituted β-carbolines.
as §1

SMILES	IC50 [µM]
COc1ccc2[nH]c3c(-c4ccc(-c5ccccn5)cc4)nccc3c2c1 [Compound 38, 6-Methoxy-1-(4-pyridin-2-yl-phenyl)-9H-β-carboline]	48.4
COc1ccc2[nH]c3c(-c4cccc5cnccc45)nccc3c2c1 [Compound 23, 1-Isoquinolin-5-yl-6-methoxy-9H-β-carboline]	9.81
COc1ccc2[nH]c3c(-c4c(C)ccc5ccccc45)nccc3c2c1 [Compound 33, 6-Methoxy-1-(2-methyl-naphthalen-1-yl)-9H-β-carboline]	2.23
COc1ccc2[nH]c3c(-c4cccc5nccnc45)nccc3c2c1 [Compound 13, 6-Methoxy-1-quinoxalin-5-yl-9H-β-carboline]	> 50
COc1ccc2c(c1)[nH]c1c(-c3cnc4ccccc4c3)nccc12 [Compound 18, 7-Methoxy-1-quinolin-3-yl-9H-β-carboline]	16.7
COc1ccc2c(c1)[nH]c1c(-c3cccc4ncccc34)nccc12 [Compound 22, 7-Methoxy-1-quinolin-5-yl-9H-β-carboline]	28.6
COc1ccc2[nH]c3c(-c4cncc5ccccc45)nccc3c2c1 [Compound 15, 1-Isoquinolin-4-yl-6-methoxy-9H-β-carboline]	4.7
COc1ccc2c(c1)[nH]c1c(-c3ccccc3)nccc12 [Compound 32, 7-Methoxy-1-phenyl-9H-β-carboline]	34.3
COc1ccc2[nH]c3c(-c4c5ccccc5cc5ccccc45)nccc3c2c1 [Compound 27, 1-Anthracen-9-yl-6-methoxy-9H-β-carboline]	2.43
COc1ccc2[nH]c3c(-c4cc5ccccc5c5ccccc45)nccc3c2c1 [Compound 29, 6-Methoxy-1-phenanthren-9-yl-9H-β-carboline]	0.84
COc1ccc2c(c1)[nH]c1c(-c3ccoc3)nccc12 [Compound 8, 1-Furan-3-yl-7-methoxy-9H-β-carboline]	38.3
COc1ccc2c(c1)[nH]c1c(-c3cccc4nccnc34)nccc12 [Compound 14, 7-Methoxy-1-quinoxalin-5-yl-9H-β-carboline]	> 50
COc1ccc2c(c1)[nH]c1c(-c3cccnc3)nccc12 [Compound 5, 1-Pyridin-3-yl-7-methoxy-9H-β-carboline]	44.8
COc1ccc2[nH]c3c(-c4ccccc4)nccc3c2c1 [Compound 31, 6-Methoxy-1-phenyl-9H-β-carboline]	37.1
Cc1cccc2c1[nH]c1c(-c3cccc4ccccc34)nccc12 [Compound 37, 8-Methyl-1-naphthalen-1-yl-9H-β-carboline]	3.54
COc1ccc2c(c1)[nH]c1c(-c3cccc4cnccc34)nccc12 [Compound 24, 1-Isoquinolin-5-yl-7-methoxy-9H-β-carboline]	24.1
COc1ccc2[nH]c3c(-c4ccc5ccccc5c4)nccc3c2c1 [Compound 25, 6-Methoxy-1-naphthalen-2-yl-9H-β-carboline]	1.36
COc1ccc2c(-c3nccc4c3[nH]c3ccc(OC)cc34)cccc2c1 [Compound 35, 6-Methoxy-1-(6-methoxy-naphthalen-1-yl)-9H-β-carboline]	47.2

system: HPAC pancreatic cancer cell line; assay: In vitro antiproliferative activity, HPAC pancreatic cancer cell line; type: cell-based; settings: Homo sapiens, Table 1
Experimental: as §2, §1

SMILES	IC50 [µM]
COc1ccc2[nH]c3c(-c4ccc(-c5ccccn5)cc4)nccc3c2c1 [Compound 38, 6-Methoxy-1-(4-pyridin-2-yl-phenyl)-9H-β-carboline]	17
COc1ccc2[nH]c3c(-c4cccc5cnccc45)nccc3c2c1 [Compound 23, 1-Isoquinolin-5-yl-6-methoxy-9H-β-carboline]	15.9
COc1ccc2[nH]c3c(-c4c(C)ccc5ccccc45)nccc3c2c1 [Compound 33, 6-Methoxy-1-(2-methyl-naphthalen-1-yl)-9H-β-carboline]	9.38
COc1ccc2[nH]c3c(-c4cccc5nccnc45)nccc3c2c1 [Compound 13, 6-Methoxy-1-quinoxalin-5-yl-9H-β-carboline]	> 50
COc1ccc2c(c1)[nH]c1c(-c3cnc4ccccc4c3)nccc12 [Compound 18, 7-Methoxy-1-quinolin-3-yl-9H-β-carboline]	14.5
COc1ccc2c(c1)[nH]c1c(-c3cccc4ncccc34)nccc12 [Compound 22, 7-Methoxy-1-quinolin-5-yl-9H-β-carboline]	> 50
COc1ccc2[nH]c3c(-c4cncc5ccccc45)nccc3c2c1 [Compound 15, 1-Isoquinolin-4-yl-6-methoxy-9H-β-carboline]	7.37
COc1ccc2c(c1)[nH]c1c(-c3ccccc3)nccc12 [Compound 32, 7-Methoxy-1-phenyl-9H-β-carboline]	34.3
COc1ccc2[nH]c3c(-c4c5ccccc5cc5ccccc45)nccc3c2c1 [Compound 27, 1-Anthracen-9-yl-6-methoxy-9H-β-carboline]	6.08
COc1ccc2[nH]c3c(-c4cc5ccccc5c5ccccc45)nccc3c2c1 [Compound 29, 6-Methoxy-1-phenanthren-9-yl-9H-β-carboline]	0.54
COc1ccc2c(c1)[nH]c1c(-c3ccoc3)nccc12 [Compound 8, 1-Furan-3-yl-7-methoxy-9H-β-carboline]	45.1
COc1ccc2c(c1)[nH]c1c(-c3cccc4nccnc34)nccc12 [Compound 14, 7-Methoxy-1-quinoxalin-5-yl-9H-β-carboline]	> 50
COc1ccc2c(c1)[nH]c1c(-c3cccnc3)nccc12 [Compound 5, 1-Pyridin-3-yl-7-methoxy-9H-β-carboline]	> 50
COc1ccc2[nH]c3c(-c4ccccc4)nccc3c2c1 [Compound 31, 6-Methoxy-1-phenyl-9H-β-carboline]	44.8
Cc1cccc2c1[nH]c1c(-c3cccc4ccccc34)nccc12 [Compound 37, 8-Methyl-1-naphthalen-1-yl-9H-β-carboline]	6.39
COc1ccc2c(c1)[nH]c1c(-c3cccc4cnccc34)nccc12 [Compound 24, 1-Isoquinolin-5-yl-7-methoxy-9H-β-carboline]	34.4
COc1ccc2[nH]c3c(-c4ccc5ccccc5c4)nccc3c2c1 [Compound 25, 6-Methoxy-1-naphthalen-2-yl-9H-β-carboline]	5.57
COc1ccc2c(-c3nccc4c3[nH]c3ccc(OC)cc34)cccc2c1 [Compound 35, 6-Methoxy-1-(6-methoxy-naphthalen-1-yl)-9H-β-carboline]	23.1

system: HCT116 colon cancer cells; assay: In vitro antiproliferative activity, HCT116 colon cancer cells; type: cell-based; settings: Homo sapiens, HCT-116, Table 1
Experimental: as §2

SMILES	IC50 [µM]
COc1ccc2[nH]c3c(-c4ccc(-c5ccccn5)cc4)nccc3c2c1 [Compound 38, 6-Methoxy-1-(4-pyridin-2-yl-phenyl)-9H-β-carboline]	3
COc1ccc2[nH]c3c(-c4cccc5cnccc45)nccc3c2c1 [Compound 23, 1-Isoquinolin-5-yl-6-methoxy-9H-β-carboline]	9
COc1ccc2[nH]c3c(-c4c(C)ccc5ccccc45)nccc3c2c1 [Compound 33, 6-Methoxy-1-(2-methyl-naphthalen-1-yl)-9H-β-carboline]	1.8
COc1ccc2[nH]c3c(-c4cccc5nccnc45)nccc3c2c1 [Compound 13, 6-Methoxy-1-quinoxalin-5-yl-9H-β-carboline]	26.1
COc1ccc2c(c1)[nH]c1c(-c3cnc4ccccc4c3)nccc12 [Compound 18, 7-Methoxy-1-quinolin-3-yl-9H-β-carboline]	13.1
COc1ccc2c(c1)[nH]c1c(-c3cccc4ncccc34)nccc12 [Compound 22, 7-Methoxy-1-quinolin-5-yl-9H-β-carboline]	12.8
COc1ccc2[nH]c3c(-c4cncc5ccccc45)nccc3c2c1 [Compound 15, 1-Isoquinolin-4-yl-6-methoxy-9H-β-carboline]	5.7
COc1ccc2c(c1)[nH]c1c(-c3ccccc3)nccc12 [Compound 32, 7-Methoxy-1-phenyl-9H-β-carboline]	31.4
COc1ccc2[nH]c3c(-c4c5ccccc5cc5ccccc45)nccc3c2c1 [Compound 27, 1-Anthracen-9-yl-6-methoxy-9H-β-carboline]	2.1
COc1ccc2[nH]c3c(-c4cc5ccccc5c5ccccc45)nccc3c2c1 [Compound 29, 6-Methoxy-1-phenanthren-9-yl-9H-β-carboline]	0.53
COc1ccc2c(c1)[nH]c1c(-c3cccc4nccnc34)nccc12 [Compound 14, 7-Methoxy-1-quinoxalin-5-yl-9H-β-carboline]	49.6
COc1ccc2[nH]c3c(-c4ccccc4)nccc3c2c1 [Compound 31, 6-Methoxy-1-phenyl-9H-β-carboline]	33.5
Cc1cccc2c1[nH]c1c(-c3cccc4ccccc34)nccc12 [Compound 37, 8-Methyl-1-naphthalen-1-yl-9H-β-carboline]	2.6
COc1ccc2c(c1)[nH]c1c(-c3cccc4cnccc34)nccc12 [Compound 24, 1-Isoquinolin-5-yl-7-methoxy-9H-β-carboline]	15.1
COc1ccc2[nH]c3c(-c4ccc5ccccc5c4)nccc3c2c1 [Compound 25, 6-Methoxy-1-naphthalen-2-yl-9H-β-carboline]	0.67
COc1ccc2c(-c3nccc4c3[nH]c3ccc(OC)cc34)cccc2c1 [Compound 35, 6-Methoxy-1-(6-methoxy-naphthalen-1-yl)-9H-β-carboline]	2.22
